Test results from patent US10471030B2, “Immunomodulatory and differentiating function selective retinoid and rexinoid compounds in combination with immune modulators for cancer immunotherapy” (Io Therapeutics, Inc., priority 2017, dated 2019).

Experiments:
[1] = test system: NB4 cells; experiment: CFU experiments off and on stroma, NB4 cells; format: cell-based; conditions: 10^−7 M ATRA, IRX5183, or 10^−8 M AM80
Source text: (§1) Data across three independent experiments.

[2] = test system: OCI-AML3 cells; experiment: CFU experiments off and on stroma, OCI-AML3 cells; format: cell-based; conditions: 10^−6 M ATRA, IRX5183, or 10^−7 M AM80
Source text: as §1

[3] = test system: Kasumi-1 cells; experiment: CFU experiments off and on stroma, Kasumi-1 cells; format: cell-based; conditions: 10^−6 M ATRA, IRX5183, or 10^−7 M AM80
Source text: as §1

[4] = test system: Naive CD4+ CD25− FoxP3− cells; experiment: Treg cell differentiation from naive T cells in vitro (FoxP3-GFP, flow cytometry); format: cell-based, mouse; conditions: in vitro assay; data not shown
Protocol: (§2) To determine whether a RARα agonist could affect T cell differentiation, T cells were incubated with a RARα agonist to determine its effect on Foxp3 expression. Naive CD4^+ CD25^− FoxP3^− cells were purified from a Foxp3-GFP mouse using flow cytometry by sorting and isolating based upon a GFP^− phenotype. These cells were activated polyclonally with αCD3 in vitro in the presence of IL-2 and TGF-β. These cells were then cultured in media with various concentrations of compound IRX5183 (a RARα agonist) and the expression of FoxP3-GFP was analyzed by flow cytometry. The RARα agonist compound IRX5183 enhanced differentiation of immunosuppressive Treg cells and inhibited differentiation of inflammatory TH17 cells from naïve T cells in vitro (Table 2).

[5] = test system: Naive CD4+ CD25− FoxP3− cells; experiment: Th17 cell differentiation from naive T cells in vitro; format: cell-based, mouse; conditions: in vitro assay; data not shown
Protocol: as §2

[6] = test system: CD4+ T cells; experiment: in vivo T cell differentiation in mice (FoxP3 expression in CD4+ T cells of blood and spleen); set-up: species or system mouse; conditions: in vivo assay; data not shown
Protocol: To expand on the finding above, the in vivo effects of a RARα agonist on T cell differentiation was evaluated in a mouse model. Mice were treated with 100 μg of compound IRX5183 or an equivalent volume of DMSO (vehicle control) every other day for 10 days. Lymphocytes from the blood and spleen were then isolated and FoxP3 expression in CD4^+ T cells was assessed.

[7] = test system: MM H929 cell lines and MM CD138+ primary cells; experiment: mRNA expression of B cell and PC markers in MM cells, liquid or BM stroma co-culture (qRT-PCR); format: cell-based, human; conditions: 1 μM for 5 days; for expression of differentiation markers: liquid conditions (absence of stroma)
Protocol: (§3) 24-well plates were coated with 0.1% gelatin in PBS for 30 min at 37° C. The gelatin solution was removed, and the stromal cells were cultured overnight at a density of 5×10^4 cells/well to obtain a confluent monolayer. At that time, MM cell lines or primary MM cells (1×10^5 in 2 ml) were added to the stroma cultures. The stroma cocultures were incubated at 37° C. in RPMI containing 10% FCS, L-glutamine, and P/S, with or without AGN194310 (1 μM for 5 days), R115866 (1 μM for 5 days), IRX5183 (1 μM for 5 days), or BTZ (2.5 nM for 48 hr).
(§4) Total RNA was extracted using the RNeasy Mini Kit (QIAGEN) according to the manufacturer's instructions. cDNA was synthesized by reverse transcription using the iScript cDNA Synthesis Kit (Bio-Rad). qRT-PCR was performed with iTaq SYBR Green Supermix (Bio-Rad) using sequence specific primers. Gene expression was normalized to GAPDH, and relative quantification was calculated using ΔΔCt. All experiments were performed in duplicate and run on the Bio-Rad CFX96 machine.
The BM microenvironment (also called “niche”) limits PC differentiation by modulating retinoid signaling. A population of MM progenitors, phenotypically similar to B cells, is intrinsically resistant to BTZ and contributes to MRD and relapse. To investigate whether the BM niche plays a role in determining the phenotype of MM cells, the mRNA expression of B cell and PC markers in MM H929 cell lines (FIGS. 3A-D) and MM CD138+ primary cells (FIGS. 3E-H) was analyzed following co-culture with mouse BM stroma using human-specific primers. […] In contrast, co-culture of MM cells with BM stroma decreased the mRNA expression of B lymphocyte-induced maturation protein 1 (BLIMP1) and spliced X box-binding protein 1 (XBP1s) (FIG. 3B, C, F, G), which are critical mediators of PC differentiation.
The BM niche regulates hematopoietic stem cell (HSC) differentiation by expressing the retinoid-inactivating enzyme CYP26. CYP26 enzymes were highly expressed in BM mesenchymal cells, while their expression was barely detectable in MM cells. Since retinoid signaling promotes PC differentiation and potentiates Ig secretion, it was determined whether stromal CYP26 is responsible for inducing a B cell phenotype in MM cells. To this end, co-culture conditions were treated with the CYP26 inhibitor R115866 (R115) or the CYP26-resistant RA receptor α-selective (RARα-selective) retinoid IRX5183 (IRX).

[8] = test system: MM cells; experiment: surface CD138 expression of MM cells (flow cytometry); format: cell-based, human; conditions: 1 μM
Protocol: as §3
Following treatment, MM cells were collected, washed with PBS, and stained for 15 min at room temperature with phycoerythrin-conjugated (PE-conjugated) anti-CD138. Cells were washed to remove unbound antibody and evaluated in a FACSCalibur system (BD Biosciences). Stromal cells were identified by GFP expression, and viable cells were identified using 7-aminoactinomycin D (7-AAD). To calculate cell numbers, live GFP-cells were normalized to calibration beads.
Expression of CD138 is a hallmark of normal PC differentiation as well MM PCs.

[9] = test system: MM cell lines and MM CD138+ primary cells; experiment: BTZ sensitivity of MM cells, clonogenic or cellular recovery, liquid or BM stroma; format: cell-based, human; conditions: for BTZ resistance after separation from BM stroma: H929 cells, 5-day stroma co-culture, fresh media 0 to 48 hr; for sensitivity of MM cells to BTZ: BTZ 2.5 nM for 48 hr
Protocol: as §3
MM cells were separated from BM stromal cells by gently pipetting several times around the well. Detached cells were centrifuged, resuspended in fresh media, and incubated in a 24-well plate for 1 hr at 37° C. During this short incubation period, contaminating stromal cells attached to the well, while MM cells remained in suspension. MM cells were then recovered by gently pipetting. This protocol was used for qRT-PCR and CFU coculture experiments. The purity achieved using this protocol was confirmed by flow cytometry to be 98%-99% MM cells and less than 2% contaminating stroma.
After treatment, MM cells were collected, washed with PBS, and plated at a density of 5,000 cells/ml in 1 ml of 1.32% methylcellulose supplemented with 30% FBS, 10% BSA, L-glutamine, P/S, and 0.1 mM β-ME. Cells were plated in triplicate in 35-mm culture dishes, incubated at 37° C., and scored for the presence of colonies 14 days later.
To determine whether decreased retinoid signaling contributes to BTZ resistance within the BM niche, MM cell lines and MM CD138+ primary cells were incubated with BM stroma for 5 days, followed by BTZ treatment.
Strategies to overcome microenvironment-dependent chemoprotection have focused on mobilization of cancer cells from the BM niche into the peripheral circulation. It was analyzed whether the change in phenotype and subsequent BTZ resistance of MM cells were lost upon separation from the BM stroma, a process that mimics mobilization. To this end, H929 cells were separated from BM mesenchymal cells following a 5-day stroma co-culture, incubated in fresh media (RPMI with 10% FBS) for 0 to 48 hr, and then treated with BTZ. […] Thus, microenvironment-dependent BTZ resistance induced by the change in MM cell phenotype may not immediately be reversed by tumor mobilization.

[10] = test system: CYP26A1; experiment: stromal CYP26A1 expression in BM stromal cells (qRT-PCR); format: cell-based; conditions: for CYP26A1 expression on BM stromal cells: soluble factors tested
Protocol: as §4

[11] = test system: H929 luciferase+ (Luc+) cells; experiment: systemic MM xenograft, bioluminescence; format: in vivo, NSG mice; conditions: monotherapy, 4 weeks; BTZ 0.5 mg/kg i.p. twice weekly, IRX 10 mg/kg once daily
Protocol: For the systemic MM model, 2×10^6 Luc+/GFP+ H929 cells were injected via the tail vein into 16-week-old male NSG mice. After engraftment, as determined by an exponential increase in bioluminescence, mice were treated with BTZ (0.5 mg/kg i.p.) twice weekly and with IRX (10 mg/kg) once daily. Tumor burden was assessed by bioluminescence, as above.
To test whether retinoids can enhance BTZ activity in MM, a systemic MM xenograft was developed by injecting 2×10^6 H929 luciferase+ (Luc+) cells via the tail vein of non-obese, diabetic, severe combined immunodeficiency IL-2 receptor γ-KO (NSG) mice. The animals were randomized to receive IRX, BTZ, or a combination of both, and disease burden was followed weekly by bioluminescence imaging (FIG. 6).

[12] = test system: H929 Luc+ cells; experiment: subcutaneous xenograft model of MM-niche interactions with WT or Smo-KO stroma, bioluminescence; format: in vivo, NSG mice; conditions: BTZ 0.5 mg/kg i.p. twice weekly
Protocol: 1×10^6 H929 Luc+ cells and 1×10^6 mouse BM stromal cells were resuspended in 100 μl […]®, diluted with RPMI (1:1), and injected subcutaneously into 16-week-old male NSG mice. After 4 days, treatment with BTZ (0.5 mg/kg i.p. twice weekly) and IRX (10 mg/kg i.p. daily) was initiated. Tumor burden was assessed by bioluminescence using the In Vivo Imaging System (PerkinElmer). For imaging, mice were exposed to 120 mg/kg D-luciferin via intraperitoneal injection […] before imaging and were anesthetized using isoflurane. Images were analyzed with Living Image Software, version 2.5 (PerkinElmer), and data were quantified as photons/second.
To study to what extent an RA-low environment created by the BM stroma and enhanced by MM cells via paracrine Hedgehog signaling contributes to BTZ resistance, a xenograft model of MM-niche interactions was developed. Each mouse carried 2 subcutaneous tumors consisting of H929 Luc+ cells and either WT (anterior tumors) or Smo-KO stroma (posterior tumors). Mice were treated with IRX (10 mg/kg i.p. daily), BTZ (0.5 mg/kg i.p. twice weekly), or a combination of both. The growth of tumors bearing WT or Smo-KO stroma was not different in untreated or IRX-treated groups (FIGS. 9 and 10). […] While some tumors in the treatment group receiving combined IRX and BTZ appeared to have regressed completely, even after anatomical study, this was not the case for all the mice in this group.

[13] = test system: B16F10 tumor cells; experiment: survival of C57BL/6 mice engrafted with B16F10 tumor cells; format: in vivo; conditions: at 50 days; 10 nM RARγ agonist; vehicles only 0%
Protocol: The anti-tumor effects of anti-CTLA-4 antibody treatment combined with 10 nM RAR ? agonist (AGN204647 (IRX4647)) are examined in C57BL/6 mice engrafted with B16F10 tumor cells. […] The survival rate of the mice treated with anti-CTLA-4 antibody alone is 40% at 50 days while the mice treated with RAR ? agonist alone have a 30% survival in the same time.

CC1(C)CCC(C)(C)c2cc(NC(=O)c3ccc(C(=O)O)cc3)ccc21 [AM80, 4-[(5,6,7,8-tetrahydro-5,5,8,8-tetramethyl-2-naphthalenyl)carbamoyl]benzoic acid]
clonogenic growth (CFU) [1]: decrease in clonogenic growth compared to control | clonogenic growth (CFU) [2]: decrease in clonogenic growth compared to control | clonogenic growth (CFU) [3]: decrease in clonogenic growth compared to control

CC1=C(/C=C/C(C)=C/C=C/C(C)=C/C(=O)O)C(C)(C)CCC1 [ATRA, all-trans retinoic acid]
clonogenic growth (CFU) [1]: stroma blockage | clonogenic growth (CFU) [2]: stroma blockage | clonogenic growth (CFU) [3]: stroma blockage

CCOc1c(Br)cc(C(=O)Nc2ccc(C(=O)O)cc2)cc1C(=O)c1ccc(C)cc1 [AGN196996]
Treg cell numbers [4]: decreases Treg cell numbers | Th17 cell numbers [5]: increases Th17 cell numbers | Th17 cell numbers [6]: increases Th17 cell numbers | Treg cell numbers [6]: decreases Treg cell numbers

CCC(CC)C(c1ccc(Nc2nc3ccccc3s2)cc1)n1cncn1 (stereo not shown) [Compound R115866]
mRNA expression of BCL6, BLIMP1, XBP1s, CHOP markers ([7]; BM stroma co-cultures): restored all markers to levels comparable to those of liquid control conditions | expression of differentiation markers [7]: did not significantly affect | surface CD138 expression ([8]; BM stromal cell co-cultures): restored CD138 expression | stroma-induced BTZ resistance ([9]; BM stroma with 1 μM test agent for 5 days, then BTZ 2.5 nM for 48 hr): overcome | BTZ resistance after separation from BM stroma ([9]; then BTZ): prevented the development of a BTZ-resistant phenotype

TNF-α
CYP26A1 expression on BM stromal cells [10]: no significant effects

CC(C)C[C@H](NC(=O)[C@H](Cc1ccccc1)NC(=O)c1cnccn1)B(O)O [BTZ, bortezomib]
BTZ resistance after separation from BM stroma ([9]; then BTZ): remained partially resistant to BTZ for up to 48 hr | sensitivity of MM cells to BTZ ([9]; absence of BM stroma (liquid)): highly sensitive | sensitivity of MM cells to BTZ ([9]; after 5 days incubation with BM stroma): induced BTZ resistance | tumor burden (bioluminescence) [11]: decreased tumor growth compared with untreated controls | response of tumors carrying Smo-KO stroma (bioluminescence) [12]: significant response | response of tumors with WT stroma (bioluminescence) [12]: refractory to BTZ treatment

CCc1ccc(C2=CC(C)(C)Sc3ccc(C#Cc4ccc(C(=O)O)cc4)cc32)cc1 [AGN194310]
expression of differentiation markers [7]: mimicked the changes induced by BM stromal cells | surface CD138 expression ([8]; without stroma): markedly decreased | BTZ sensitivity of MM cells ([9]; liquid, 1 μM for 5 days, then BTZ): decreasing BTZ sensitivity

CC1=C2C[C@H]3[C@@H](CC=C4C[C@@H](O)CC[C@@]43C)[C@@H]2CC[C@]12O[C@@H]1C[C@H](C)CN[C@H]1[C@H]2C [cyclopamine]
stromal Cyp26a1 upregulation by MM cells ([10]; co-culture with MM cells): partially overcame

CC1(C)CCC(C)(C)c2cc(C(/C=C/c3cccc(C(=O)O)c3)=N/O)ccc21 [AGN204647]
survival rate [13]: 30%

IL-6: cytokine, soluble factor tested
CYP26A1 expression on BM stromal cells [10]: no significant effects
